# PMC2775099 (Bioorganic & medicinal chemistry, 2009)
# Molecular target: rat nNOS (Rattus norvegicus, UniProt P29476)
# Conditions: for potency with nNOS relative to 1: amine in the chain replaced with ether or amide
SMILES,potency with nNOS relative to 1,"loss of binding affinity relative to 1 (nNOS, amine replaced with amide)"
"Cc1cc(N)nc(CC2CNCC2NCCOCCc2cccc(F)c2)c1 (stereo not drawn) [compound 4, 6-((4-(2-(3-Fluorophenethoxy)ethylamino)pyrrolidin-3-yl)methyl)-4-methyl-pyridin-2-amine]",significant loss in potency,
"Cc1cc(N)nc(CC2CNCC2OCCNC(=O)Cc2cccc(F)c2)c1 (stereo not drawn) [compound 6, N-(2-(4-((6-Amino-4-methylpyridin-2-yl)-methyl)pyrrolidin-3-yloxy)ethyl)-2-(3-fluorophenyl)acetamide]",significant loss in potency,
"Cc1cc(N)nc(CC2CNCC2NC(=O)CNCCc2cccc(F)c2)c1 (stereo not drawn) [compound 3, N-(4-((6-Amino-4-methylpyridin-2-yl)-methyl)-pyrrolidin-3-yl)-2-(3-fluorophenethylamino)-acetamide]",,3-4 fold
